# From US20160177395A1, “BIOMARKERS FOR THE PREDICTION OF RENAL INJURY” (priority 2007, published 2016)
# Values joined by “and” are separate entries in the source; they are usually repeats but may differ in a detail not shown here. Identical values can stand only once.
# Test system: kidney tissues of treated or untreated rats
# Assay: Real-time qRT-PCR of signature amplicons, validation stage, labeled and un-labeled samples (Table 23)
# Details: for H31883_DB71_seg13 normalized qRT-PCR result / MUSCYCG1R_DB81_seg19-20 normalized qRT-PCR result / W41270_DB81_seg11 normalized qRT-PCR result: labeled sample, one line per animal
# Method in brief: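 Rat kidney RNA, labeled and un-labeled samples, run over seven plates; two amplicons per signature gene (wild-type and splice variant). Values normalized to housekeeping genes, then per plate and amplicon by geometric mean of ratios against a shuffled normalization plate (outliers removed), then scaled.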
# [1] = day1, female rat kidney, listed as CadCl
# [2] = day1, male rat kidney, listed as CadCl
# [3] = day5, female rat kidney, listed as CadCl
# [4] = day5, male rat kidney, listed as CadCl
# [5] = day28, female rat kidney, listed as CadCl
# [6] = day28, male rat kidney, listed as CadCl
# [7] = labeled samples, day1, kidney of individual male/female rats, listed as CadCl
# [8] = labeled samples, day5, kidney of individual male/female rats, listed as CadCl
# [9] = labeled samples, day28, kidney of individual male/female rats, listed as CadCl
# [10] = day1, female rat kidney, listed as Cis
# [11] = day1, male rat kidney, listed as Cis
# [12] = day28, female rat kidney, listed as Cis
# [13] = day28, male rat kidney, listed as Cis
# [14] = labeled samples, day1, kidney of individual male/female rats, listed as Cis
# [15] = labeled samples, day5, kidney of individual male/female rats, listed as Cis
# [16] = labeled samples, day28, kidney of individual male/female rats, listed as Cis
# [17] = labeled samples, day1, kidney of individual male/female rats
# [18] = labeled samples, day5, kidney of individual male/female rats
# [19] = labeled samples, day28, kidney of individual male/female rats
compound,measurement,setting,value
[Cl][Cd][Cl] [Cadmium chloride],H31883_DB71_seg13 normalized qRT-PCR result,[1],1.194 and 1.772 and 1.894
same,MUSCYCG1R_DB81_seg19-20 normalized qRT-PCR result,[1],1.133 and 1.64 and 1.263
same,W41270_DB81_seg11 normalized qRT-PCR result,[1],1.059 and 1.155 and 1.372
same,H31883_DB71_seg13 normalized qRT-PCR result,[2],1.034 and 1.027 and 0.957
same,MUSCYCG1R_DB81_seg19-20 normalized qRT-PCR result,[2],0.951 and 1.108 and 1.069
same,W41270_DB81_seg11 normalized qRT-PCR result,[2],1.499 and 1.622 and 1.512
same,H31883_DB71_seg13 normalized qRT-PCR result,[3],1.782 and 0.906
same,MUSCYCG1R_DB81_seg19-20 normalized qRT-PCR result,[3],1.866 and 0.805
same,W41270_DB81_seg11 normalized qRT-PCR result,[3],2.282 and 0.854
same,H31883_DB71_seg13 normalized qRT-PCR result,[4],1.104 and 1.157 and 1.671
same,MUSCYCG1R_DB81_seg19-20 normalized qRT-PCR result,[4],1.083 and 1.409 and 2.393
same,W41270_DB81_seg11 normalized qRT-PCR result,[4],1.337 and 1.662 and 1.675
same,H31883_DB71_seg13 normalized qRT-PCR result,[5],0.259 and 0.783 and 1.033
same,MUSCYCG1R_DB81_seg19-20 normalized qRT-PCR result,[5],0.728 and 0.975 and 1.58
same,W41270_DB81_seg11 normalized qRT-PCR result,[5],0.414 and 0.827 and 1.098
same,H31883_DB71_seg13 normalized qRT-PCR result,[6],0.531 and 0.817 and 0.633
same,MUSCYCG1R_DB81_seg19-20 normalized qRT-PCR result,[6],0.672 and 0.836 and 0.333
same,W41270_DB81_seg11 normalized qRT-PCR result,[6],0.781 and 1.107 and 0.807
same,H31883_DB71_seg13 normalized qRT-PCR expression (Cyclin-G1 (CCNG1) transcript),[7],0.919 and 1.005 and 1.446 and 1.239 and 1.632 and 1.143
same,MUSCYCG1R_DB81_seg19-20 normalized qRT-PCR expression,[7],1.224 and 1.097 and 2.129 and 2.276 and 1.856 and 3.981
same,"W41270_DB81_seg11 normalized qRT-PCR expression (tumor necrosis factor receptor superfamily, member 12a transcript)",[7],0.727 and 1.183 and 1.265 and 0.993 and 0.983 and 1
same,H31883_DB71_seg13 normalized qRT-PCR expression (Cyclin-G1 (CCNG1) transcript),[8],1.057 and 1.154 and 0.786 and 1.132 and 1.051
same,MUSCYCG1R_DB81_seg19-20 normalized qRT-PCR expression,[8],1.036 and 2.018 and 1.292 and 3.613 and 2.866
same,"W41270_DB81_seg11 normalized qRT-PCR expression (tumor necrosis factor receptor superfamily, member 12a transcript)",[8],1.067 and 2.101 and 1.109 and 0.769 and 1.211
same,H31883_DB71_seg13 normalized qRT-PCR expression (Cyclin-G1 (CCNG1) transcript),[9],0.785 and 0.652 and 0.712 and 0.681 and 0.849 and 0.578
same,MUSCYCG1R_DB81_seg19-20 normalized qRT-PCR expression,[9],0.769 and 1.356 and 1.068 and 0.68 and 2.128 and 0.932
same,"W41270_DB81_seg11 normalized qRT-PCR expression (tumor necrosis factor receptor superfamily, member 12a transcript)",[9],1.138 and 0.529 and 0.772 and 0.578 and 0.654 and 0.522
N.N.[Cl][Pt][Cl] [Cisplatin],H31883_DB71_seg13 normalized qRT-PCR result,[10],0.844 and 1.209 and 1.345
same,MUSCYCG1R_DB81_seg19-20 normalized qRT-PCR result,[10],0.631 and 0.788 and 0.899
same,W41270_DB81_seg11 normalized qRT-PCR result,[10],0.81 and 1.261 and 1.096
same,H31883_DB71_seg13 normalized qRT-PCR result,[11],0.799 and 1.09 and 0.902
same,MUSCYCG1R_DB81_seg19-20 normalized qRT-PCR result,[11],0.495 and 1.64 and 0.811
same,W41270_DB81_seg11 normalized qRT-PCR result,[11],0.815 and 2.455 and 1.176
same,H31883_DB71_seg13 normalized qRT-PCR result,[12],1.749 and 0.786 and 1.864
same,MUSCYCG1R_DB81_seg19-20 normalized qRT-PCR result,[12],2.301 and 1.555 and 3.336
same,W41270_DB81_seg11 normalized qRT-PCR result,[12],2.504 and 2.643 and 5.783
same,H31883_DB71_seg13 normalized qRT-PCR result,[13],1.587 and 0.786 and 1.371
same,MUSCYCG1R_DB81_seg19-20 normalized qRT-PCR result,[13],4.504 and 1.428 and 1.753
same,W41270_DB81_seg11 normalized qRT-PCR result,[13],5.917 and 3.371 and 3.008
same,H31883_DB71_seg13 normalized qRT-PCR expression (Cyclin-G1 (CCNG1) transcript),[14],0.668 and 0.853 and 1.416 and 2.092 and 2.559 and 1.134
same,MUSCYCG1R_DB81_seg19-20 normalized qRT-PCR expression,[14],0.806 and 1.514 and 1.492 and 3.259 and 2.003 and 1.277
same,"W41270_DB81_seg11 normalized qRT-PCR expression (tumor necrosis factor receptor superfamily, member 12a transcript)",[14],0.679 and 0.759 and 1.331 and 1.029 and 1.224 and 0.496
same,AI045075_DB71_seg6 normalized qRT-PCR expression (Interferon stimulated exonuclease 20 (ISG20) transcript),[15],1.804 and 1.683 and 4.298 and 1.503 and 0.93 and 1.09
same,H31883_DB71_seg13 normalized qRT-PCR expression (Cyclin-G1 (CCNG1) transcript),[15],3.816 and 5.526 and 3.771 and 1.509 and 1.642 and 2.695
same,MUSCYCG1R_DB81_seg19-20 normalized qRT-PCR expression,[15],2.034 and 4.156 and 4.947 and 0.981 and 3.172 and 1.643
same,"W41270_DB81_seg11 normalized qRT-PCR expression (tumor necrosis factor receptor superfamily, member 12a transcript)",[15],1.262 and 3.597 and 1.404 and 0.843 and 2.113 and 0.705
same,W64472_DB81_seg2 normalized qRT-PCR expression (Interferon stimulated exonuclease 20 (ISG20) transcript),[15],1.795 and 3.64 and 6.414 and 1.976 and 1.448 and 1.265
same,W83813_DB81_seg27 normalized qRT-PCR expression,[15],1.716 and 0.857 and 1.461 and 1.366 and 0.758 and 1.265
same,H31883_DB71_seg13 normalized qRT-PCR expression (Cyclin-G1 (CCNG1) transcript),[16],4.41 and 2.839 and 2.398 and 2.653 and 5.592 and 3.563
same,MUSCYCG1R_DB81_seg19-20 normalized qRT-PCR expression,[16],3.509 and 3.443 and 1.813 and 3.094 and 7.02 and 3.473
same,"W41270_DB81_seg11 normalized qRT-PCR expression (tumor necrosis factor receptor superfamily, member 12a transcript)",[16],4.741 and 4.104 and 2.053 and 1.904 and 4.516 and 3.866
Gentamycin,H31883_DB71_seg13 normalized qRT-PCR result,"day1, female rat kidney",0.963 and 0.98 and 0.898
same,MUSCYCG1R_DB81_seg19-20 normalized qRT-PCR result,"day1, female rat kidney",1.251 and 0.889 and 2.053
same,W41270_DB81_seg11 normalized qRT-PCR result,"day1, female rat kidney",0.763 and 0.963 and 1.408
same,H31883_DB71_seg13 normalized qRT-PCR result,"day1, male rat kidney",1.02 and 1.409 and 1.161
same,MUSCYCG1R_DB81_seg19-20 normalized qRT-PCR result,"day1, male rat kidney",1.072 and 1.848 and 1.221
same,W41270_DB81_seg11 normalized qRT-PCR result,"day1, male rat kidney",1.567 and 1.869 and 1.48
same,H31883_DB71_seg13 normalized qRT-PCR result,"day28, female rat kidney",0.421 and 0.441 and 0.434
same,MUSCYCG1R_DB81_seg19-20 normalized qRT-PCR result,"day28, female rat kidney",0.967 and 2.632 and 1.78
same,W41270_DB81_seg11 normalized qRT-PCR result,"day28, female rat kidney",0.806 and 1.079 and 1.164
same,H31883_DB71_seg13 normalized qRT-PCR result,"day28, male rat kidney",0.852 and 0.857 and 0.756
same,MUSCYCG1R_DB81_seg19-20 normalized qRT-PCR result,"day28, male rat kidney",1.734 and 3.06 and 1.469
same,W41270_DB81_seg11 normalized qRT-PCR result,"day28, male rat kidney",1.55 and 1.353 and 1.245
same,H31883_DB71_seg13 normalized qRT-PCR expression (Cyclin-G1 (CCNG1) transcript),[17],0.772 and 1.118 and 0.987 and 1.115 and 0.84 and 1.053
same,MUSCYCG1R_DB81_seg19-20 normalized qRT-PCR expression,[17],0.842 and 1.155 and 1.361 and 2.011 and 1.387 and 2.861
same,"W41270_DB81_seg11 normalized qRT-PCR expression (tumor necrosis factor receptor superfamily, member 12a transcript)",[17],1.361 and 1.037 and 0.904 and 1.08 and 2.078 and 0.85
same,"Label: true label (Normal/Toxic), known renal toxic effect","labeled samples, day5",Toxic
same,AI045075_DB71_seg6 normalized qRT-PCR expression (Interferon stimulated exonuclease 20 (ISG20) transcript),[18],1.337 and 1.374 and 1.402 and 1.778 and 1.636 and 1.256
same,H31883_DB71_seg13 normalized qRT-PCR expression (Cyclin-G1 (CCNG1) transcript),[18],0.948 and 1.09 and 0.78 and 1.142 and 1.402 and 1.515
same,MUSCYCG1R_DB81_seg19-20 normalized qRT-PCR expression,[18],1.085 and 0.993 and 0.955 and 1.442 and 1.842 and 1.644
same,"W41270_DB81_seg11 normalized qRT-PCR expression (tumor necrosis factor receptor superfamily, member 12a transcript)",[18],0.983 and 0.954 and 1.104 and 1.699 and 0.82 and 2.64
same,W64472_DB81_seg2 normalized qRT-PCR expression (Interferon stimulated exonuclease 20 (ISG20) transcript),[18],1.733 and 2.048 and 1.962 and 1.427 and 1.403 and 1.53
same,W83813_DB81_seg27 normalized qRT-PCR expression,[18],1.688 and 1.042 and 0.702 and 1.441 and 1.395 and 0.76
same,H31883_DB71_seg13 normalized qRT-PCR expression (Cyclin-G1 (CCNG1) transcript),[19],0.853 and 0.861 and 0.553 and 0.817 and 0.554 and 0.842
same,MUSCYCG1R_DB81_seg19-20 normalized qRT-PCR expression,[19],0.863 and 1.072 and 0.617 and 0.865 and 0.729 and 1.661
same,"W41270_DB81_seg11 normalized qRT-PCR expression (tumor necrosis factor receptor superfamily, member 12a transcript)",[19],1.614 and 1.342 and 1.315 and 1.194 and 1.188 and 1.941
